Experimental data as given in patent publication US9273067B2, “Pyrazolopyrimidine macrocycles as inhibitors of human immunodeficiency virus replication” (BRISTOL-MYERS SQUIBB COMPANY, priority 2014, dated 2016).
Read-outs that look alike come from different tables or passages of the source.

Experiments:
[1] = from C=CCOC1(C)CCN(c2c([C@H](OC(C)(C)C)C(=O)O)c(C)nc3cc(COCc4c(F)cc(F)cc4O[C@@H](C)CC=C)nn23)CC1; rcm bond; 20-membered ring; Hoveyda-Grubbs II/CuI; DCE; 11.5 mM; 90.0 °C; 1.5 h
[2] = system: NL-RLuc virus (recombinant HIV NL4-3 with Renilla Luciferase) in MT-2 cells; assay: Inhibition of HIV replication (NL-RLuc virus in MT-2 cells, luciferase readout); assay type: cell-based, human immunodeficiency virus (HIV); conditions: MT2, 120 h, NL-RLuc virus infecting MT-2 cells, 5 days of incubation, 10% FBS, luciferase quantitation; at least 2 experiments
Procedure, shortened: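 NL4-3 carrying Renilla luciferase in place of part of nef, produced in 293T cells, was used to infect MT-2 cells in RPMI 1640/10% FBS with serial compound dilutions. After 5 days, virus growth was read by luciferase. EC50 came from the median effect equation over at least 2 experiments.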

Work on `CCOC(=O)[C@@H](OC(C)(C)C)c1c(C)nc2cc3nn2c1N1CCC(C)(CC1)OCC=Cc1cc(C(F)(F)F)ccc1COC3` yielded a ring closure, isolated yield (from C=CCOC1(C)CCN(c2c([C@H](OC(C)(C)C)C(=O)OCC)c(C)nc3cc(COCc4ccc(C(F)(F)F)cc4Br)nn23)CC1, cc_pd bond, 17-membered ring, Pd2(dba)3/PPh3/Et3N, MeCN, 35.1 mM, 120.0 °C, 23.0 h) of 62.9%.

With `CCOC(=O)[C@@H](OC(C)(C)C)c1c(C)nc2cc3nn2c1N1CCC(C)(CC1)OCC=Cc1ccccc1CC=C3` the ring closure, isolated yield (from C=CCOC1(C)CCN(c2c([C@H](OC(C)(C)C)C(=O)OCC)c(C)nc3cc(C=CCc4ccccc4Br)nn23)CC1, cc_pd bond, 17-membered ring, Pd2(dba)3/PPh3/Et3N, acetonitrile, 35.2 mM, 120.0 °C, 20.0 h) was 51.6%.

`COC(=O)[C@@H](OC(C)(C)C)c1c(C)nc2cc3nn2c1N1CCC(C)(CC1)OCC=Cc1ccccc1COC3` gave a ring closure, isolated yield (from C=CCOC1(C)CCN(c2c([C@H](OC(C)(C)C)C(=O)OC)c(C)nc3cc(COCc4ccccc4Br)nn23)CC1, cc_pd bond, 17-membered ring, Pd2(dba)3/PPh3/Et3N, acetonitrile, 40.0 mM, 120.0 °C, 18.0 h) of 78%.

In the case of `CCOC(=O)[C@@H](OC(C)(C)C)c1c(C)nc2cc3nn2c1N1CCC(C)(CC1)OCC=CCCc1cccc(c1)COC3`, the ring closure, isolated yield (from C=CCCc1cccc(COCc2cc3nc(C)c([C@H](OC(C)(C)C)C(=O)OCC)c(N4CCC(C)(OCC=C)CC4)n3n2)c1, rcm bond, 20-membered ring, Grubbs II, DCM, 1.62 mM, 2.0 h, 2 steps) is reported as 41.8%.

Molecule `Cc1nc2cc3nn2c(c1[C@H](OC(C)(C)C)C(=O)O)N1CCC(C)(CC1)OCC=CC[C@H](C)Oc1cc(F)cc(F)c1COC3` [Example 31, (2S)-2-(tert-Butoxy)-2-[(20S)-14,16-difluoro-4,20,26-trimethyl-11,19,25-trioxa-1,5,7,8-tetraazapentacyclo[24.2.2.1^6,^9.0^2,^7.0^13,^18]hentriaconta-2,4,6(31),8,13,15,17,22-octaen-3-yl]acetic acid] has a ring closure, yield after HPLC [1] of 5.67% and an EC50 [2] of 12 nM.

Molecule `CCOC(=O)[C@@H](OC(C)(C)C)c1c(C)nc2cc3nn2c1N1CCC(C)(CC1)OCC=CCc1ccccc1COC3` has a ring closure, isolated yield (from C=CCOC1(C)CCN(c2c([C@H](OC(C)(C)C)C(=O)OCC)c(C)nc3cc(COCc4ccccc4CC=C)nn23)CC1, rcm bond, 18-membered ring, Hoveyda-Grubbs II (20 mol%)/CuI, 1,2-dichloroethane, 1.4 mM, 70.0 °C, 2.0 h) of 76%.

Work on `CCOC(=O)[C@@H](OC(C)(C)C)c1c(C)nc2cc3nn2c1N1CCC(C)(CC1)OCC=CCc1cc(F)c(F)cc1COC3` yielded a ring closure, isolated yield (from C=CCOC1(C)CCN(c2c([C@H](OC(C)(C)C)C(=O)OCC)c(C)nc3cc(COCc4cc(F)c(F)cc4CC=C)nn23)CC1, rcm bond, 18-membered ring, Grubbs II (0.1 eq), then NaBH4/MeOH, DCM, 1.56 mM, 40.0 °C, 2.0 h, 2 steps) of 62.5%.

Molecule `CCOC(=O)[C@@H](OC(C)(C)C)c1c(C)nc2cc3nn2c1N1CCC(C)(CC1)OCC=CCc1cc(F)ccc1COC3` has a ring closure, isolated yield (from C=CCOC1(C)CCN(c2c([C@H](OC(C)(C)C)C(=O)OCC)c(C)nc3cc(COCc4ccc(F)cc4CC=C)nn23)CC1, rcm bond, 18-membered ring, Grubbs II (1 eq), then NaBH4/MeOH, DCM, 1.6 mM, 40.0 °C, 2.0 h, 2 steps) of 44.7%.

Molecule `CCOC(=O)[C@@H](OC(C)(C)C)c1c(C)nc2cc3nn2c1N1CCC(C)(CC1)OCC=CCc1cc(C)ccc1COC3` has a ring closure, isolated yield (from C=CCOC1(C)CCN(c2c([C@H](OC(C)(C)C)C(=O)OCC)c(C)nc3cc(COCc4ccc(C)cc4CC=C)nn23)CC1, rcm bond, 18-membered ring, Grubbs II (1 eq), then NaBH4/MeOH, DCM, 1.62 mM, 40.0 °C, 2.0 h, 2 steps) of 62.6%.
